Measurements taken from ChEMBL document CHEMBL1158419, “3D-QSAR study of 8-azabicyclo[3.2.1] octane analogs antagonists of cholinergic receptor” (Bioorg Med Chem Lett, 2009).

assay: Antagonist activity at muscarinic receptor; assay type: functional

Question: For CN1C2CC[C@@H]1C[C@H](OC(c1ccc(F)cc1)c1ccc(F)cc1)C2 (single isomer, unassigned), which pKi is on record?
Answer: 1.06

Question: Which pKi does the source give for COC(=O)[C@H]1[C@@H](OC(=O)c2ccccc2)C[C@@H]2CC[C@H]1N2C [COCAINE] here?
Answer: 4.79

Question: With C[N+]1(C)[C@@H]2C[C@@H](OC(=O)C(C(=O)OC3CCCCC3)c3ccccc3)C[C@H]1[C@@H]1O[C@@H]12 (some centres not stated) as the compound, how does the pKi read?
Answer: 8.01

Question: For CN1[C@@H]2CC[C@H]1C[C@@H](OC(=O)C(CO)c1ccccc1)C2 (some centres not stated) [ATROPINE], which pKi is on record?
Answer: 9.34

Question: For COC(=O)C(C(=O)O[C@@H]1C[C@@H]2[C@H]3O[C@H]3[C@H](C1)[N+]2(C)C)(c1ccccc1)C1CCCC1 (some centres not stated), which pKi is on record?
Answer: 7.28

Question: With CN1[C@@H]2C[C@@H](OC(=O)C(c3ccccc3)C3CCCC3)C[C@H]1[C@@H]1O[C@@H]12 (some centres not stated) as the compound, how does the pKi read?
Answer: 7.14

Question: Which pKi does the source give for CN1[C@@H]2CC[C@H]1C[C@@H](OC(c1ccccc1)c1ccccc1)C2 [BENZTROPINE] here?
Answer: 0.33

Question: With CCCCN1C2CC[C@@H]1C[C@H](OC(c1ccc(F)cc1)c1ccc(F)cc1)C2 (single isomer, unassigned) as the compound, how does the pKi read?
Answer: 2.6

Question: With Fc1ccc(C(O[C@@H]2CC3CC[C@H](C2)N3Cc2ccccc2)c2ccc(F)cc2)cc1 (single isomer, unassigned) as the compound, how does the pKi read?
Answer: 3.01

Question: Which pKi does the source give for CCOC(=O)C(C(=O)O[C@@H]1CC2[C@H]3O[C@H]3[C@H](C1)[N+]2(C)C)c1ccccc1 (single isomer, unassigned) here?
Answer: 8.32

Question: With C[S+]([O-])COC(=O)C(O[C@@H]1CC2CC[C@H](C1)[N+]2(C)C)c1ccccc1 (single isomer, unassigned) as the compound, how does the pKi read?
Answer: 7.25

Question: For CCCCCCOC(=O)C(C(=O)O[C@@H]1C[C@@H]2[C@H]3O[C@H]3[C@H](C1)[N+]2(C)C)c1ccccc1 (some centres not stated), which pKi is on record?
Answer: 7.33

Question: Which pKi does the source give for C=CCN1C2CC[C@@H]1C[C@H](OC(c1ccc(F)cc1)c1ccc(F)cc1)C2 (single isomer, unassigned) here?
Answer: 2.25

Question: Which pKi does the source give for CCOC(=O)C(C(=O)O[C@@H]1C[C@@H]2[C@H]3O[C@H]3[C@H](C1)[N+]2(C)C)(c1ccccc1)C1CCCC1 (some centres not stated) here?
Answer: 7.98

Question: Which pKi does the source give for C[N+]1(C)[C@@H]2CC[C@H]1C[C@@H](OC(=O)CCC(C(=O)O[C@@H]1C[C@H]3CC[C@@H](C1)[N+]3(C)C)c1ccccc1)C2 (some centres not stated) here?
Answer: 6.5

Question: For CN1[C@@H]2C[C@@H](OC(=O)[C@H](CO)c3ccccc3)C[C@H]1[C@@H]1O[C@@H]12 [SCOPOLAMINE], which pKi is on record?
Answer: 8.95

Question: Which pKi does the source give for C[N+]1(C)C2CCC1CC(OC(=O)C(CC(=O)O[C@H]1C[C@H]3CC[C@@H](C1)[N+]3(C)C)c1ccccc1)C2 (some centres not stated) here?
Answer: 7.18
